Laboratory results: patent publication US10041096B2, “Methods and products for generating oils” (The Texas A&M University System, priority 2011, dated 2018)

Experiments:
Assay type in all cases: cell-based
KAS603, a Chlorella sp. [1] = assay: Recovery and measurement of extracellular lipids (hexane sweep, weight, HPLC, TLC) after glyburide treatment; settings: for Weights of oil recovered from outside cells following glyburide treatment: from 1 L of culture
Procedure: Glyburide Dosing: After 48 hours, the sodium oxamate time course was complete. A 1 L sample of each culture was collected and treated to recover oil outside the cells (if any) at t=0. The three cultures that had previously been treated with sodium oxamate were subsequently treated with 0.05 mM glyburide. Extracellular lipids in 1 L aliquots of the cultures were collected at 4 hours and 24 hours after the addition of glyburide by hexane sweep; dry cell weights were also calculated on separate aliquots of the culture. Oils recovered were analyzed via TLC and HPLC.
(§1) Algal growth: KAS603, a Chlorella sp. was scaled in F/2 growth medium to ˜300 L in a vertical air lift bioreactor under 12/12 artificial illumination. Growth of the culture was monitored for density, chlorophyll accumulation, and for the presence of invasive species. Growth kinetics were typical and observation of invasive species was limited (sparse bacteria) and typical. The algae were grown under nutrient rich and light limiting conditions.
(§2) Lipid Analyses: TLC—Dried extracts were resuspended in 100 μl of CHCl3. 2.5 μl of each sample was spotted onto silica gel matrix TLC plates (Sigma #2599) and resolved with hexane:diethyl ether:acetic acid (80:20:1). Carotenoids such as β-carotene were visible as yellow bands on the plate, while chlorophyll and chlorophyll breakdown products were visible as green or green/gray bands, respectively. Lipids other than carotenoids and chlorophyll were visualized with iodine vapors. The extracted samples were compared to commercially available lipid standards consisting of 1 μg/μl each of glyceryl trioleate (TAG), 1,3-Diolein (1,3 DAG), 1,2-dioleoyl-rac-glycerol (1,2 DAG), monoolein (MAG), and oleic acid (FFA).
Recovery and Measurement of Extracellular Lipids: Cells that were exposed to the secretion compound glyburide were swept briefly with hexane at room temperature. 50 ml of hexane was added to 1 L samples from each study group, then mixed thoroughly, but gently, by inversion. The cells were re-centrifuged and the hexane layer containing the recovered lipids was transferred to a pre-weighed vial. The hexane was evaporated and the dried lipids were re-weighed. The dried lipids were subsequently analyzed by TLC or HPLC/MS as described.

P. Parvum [2] = assay: Oil secretion in P. Parvum cultures after glyburide (surface sheen, TLC of supernatant extract)
Procedure: A control culture of P. Parvum was grown and split into two 500 mL cultures. Glyburide was added to one of the cultures and the culture was shaken for 24 h.
A 1 L P. parvum culture (˜2 million cells/mL) treated with oxamate was split into two subcultures of 400 mL each. Glyburide dissolved in DMSO was added to one subculture. The other subculture received the DMSO carrier (control) that the glyburide had been dissolved in. The two cultures were incubated on the shaker for 24 h and subsequently off the shaker for ˜2 h.
The cells were then pelleted and a 200 mL sample of the culture supernatant was removed from each culture. Each of the removed samples was briefly extracted with nonpolar solvent. The organic extracts were then dried down and the remainder was resuspended in an equal volume of solvent. An equal volume of each (as well as pure TAG as a standard) was loaded on a TLC plate. A chromatogram was developed and stained with iodine vapors. […] Both subcultures had similar amounts of phospholipids (PL). This is likely due to the presence of dead cell membranes in the supernatant extract. Both test samples also had either some monoglycerides (MG) or more likely, the pigment fucoxanthin.

algal cells = assay: Nile Red fluorescence in growth medium after glyburide; settings: following treatment with glyburide
KAS603, a Chlorella sp. [3] = assay: Culture growth: dry weight density and chlorophyll a during compound treatment; settings: four 80 L cultures during the treatment period
Procedure: Algal growth: KAS603, a Chlorella sp. was scaled in F/2 growth medium to ˜300 L in a vertical air lift bioreactor under 12/12 artificial illumination. Growth of the culture was monitored for density, chlorophyll accumulation, and for the presence of invasive species. Growth kinetics were typical and observation of invasive species was limited (sparse bacteria) and typical. The algae were grown under nutrient rich and light limiting conditions. […] Dry Weight Analysis: 10 ml of control and treated culture samples were pelleted via centrifugation at 3000 rpm for 5 minutes. The pellet was washed 1× with dH2O to remove salts. Following a second centrifugation step, the pellet was transferred to a pre-weighed aluminum dish and dried to a constant weight at 26.5° C. Cellular Growth/Density: Cellular growth and density can be characterized by the concentration of chlorophyll a in a sample. Chlorophyll a absorbs light at 435 nm and 680 nm, which can be accurately measured spectrophotometrically. Prior to the dry weight analysis, 10 ml samples were analyzed for absorbance at 435 nm and 680 nm. Based on the established chlorophyll a standard curve, chlorophyll a was calculated and reported as “mg chlorophyll a”.

Chlorella sp. = assay: Nile Red fluorescence within cells after sodium oxamate; settings: range of sodium oxamate concentrations
KAS603, a Chlorella sp. [4] = assay: Total lipid extraction with HPLC/TLC lipid profile after sodium oxamate treatment
Procedure: Sodium Oxamate Dosing: Sodium oxamate was added to three of the four cultures (see FIG. 1). A 1 L sample was collected at time 0, 24 and 48 hours for each culture (a total of 4 samples per time point). The algal cells were pelleted and oils extracted at each time point. Quantitative oil profiles of extracted lipids were generated by TLC and HPLC.
as §1
Total lipid extraction: 1 L samples were pelleted via centrifugation at 3000 rpm for 5 min. The pellets were resuspended in 10 ml of methanol and incubated at 65° C. for 1 h. The methanol was replaced with chloroform and incubated at 50° C. for 10 min. The chloroform was replaced with hexane and incubated at 50° C. for an additional 10 min. The extracts were pooled and distilled. The weights of the dried extracts were recorded prior to resuspension in 100 μl chloroform for TLC analysis, or in 2:1 chloroform:methanol (v/v) to a final concentration of ˜10 mg/mL and loaded for HPLC analysis (Surveyor LC Pump and Autosampler Plus, Thermo Finnegan). A splitter (Analytical Scientific Instruments) was employed to divide the sample 1:20 between a quadrapole MS (Thermo Finnegan MSQ Plus) and an ELSD (Sedere Sedex 75), respectively.
as §2

Schizochytrium sp. = assay: Nile Red fluorescence within cells after sodium oxamate; settings: range of sodium oxamate concentrations
P. Parvum [5] = assay: Growth curves of oxamate treated algae (spike-in); settings: small-scale cultures, oxamate added every three days, vs growth medium only
Procedure: Small-scale […] P. Parvum cultures were grown and treated with oxamate. Four (A-D in FIG. 13) of the small scale cultures were treated with oxamate stock in growth medium, added every three days, corresponding to the points on the curve. Two (E-F in FIG. 13) of the cultures had only growth medium added.

P. Parvum [6] = assay: Nile Red fluorescence within cells after sodium oxamate; settings: range of sodium oxamate concentrations

**Q.** Which results are given for `COc1ccc(Cl)cc1C(=O)NCCc1ccc(S(=O)(=O)NC(=O)NC2CCCCC2)cc1` [glyburide]?
**A.** β-carotene and chlorophyll outside the cells (HPLC) (KAS603, a Chlorella sp. [1]; 0.05 mM glyburide for 24 hrs): neither β-carotene nor chlorophyll were detected outside the cells; appearance of raw hexane extractions (KAS603, a Chlorella sp. [1]; 0.05 mM glyburide, control group not coloured): visibly colored; external oil recovered by hexane sweep (in words) (KAS603, a Chlorella sp. [1]; 4 hours after glyburide): no immediate increases in external oil; external oil recovered by hexane sweep (in words) (KAS603, a Chlorella sp. [1]; 24 hours after glyburide exposure): significantly larger quantities of oil were recovered; Weights of oil recovered from outside cells following glyburide treatment (KAS603, a Chlorella sp. [1]; T = 0 (at glyburide addition), cultures pre-treated 48 h with 0.3 mM sodium oxamate, listed as GLB1): 0.0003 g; Weights of oil recovered from outside cells following glyburide treatment (KAS603, a Chlorella sp. [1]; T = 0 (at glyburide addition), cultures pre-treated 48 h with 0.3 mM sodium oxamate, listed as GLB2): 0.0002 g; Weights of oil recovered from outside cells following glyburide treatment (KAS603, a Chlorella sp. [1]; T = 0 (at glyburide addition), cultures pre-treated 48 h with 0.3 mM sodium oxamate, listed as GLB3): 0.0003 g; Weights of oil recovered from outside cells following glyburide treatment (KAS603, a Chlorella sp. [1]; T = 4 hours after 0.05 mM glyburide, oxamate pre-treated cultures, listed as GLB1): 0.0002 g; Weights of oil recovered from outside cells following glyburide treatment (KAS603, a Chlorella sp. [1]; T = 4 hours after 0.05 mM glyburide, oxamate pre-treated cultures, listed as GLB2): 0.0004 g; Weights of oil recovered from outside cells following glyburide treatment (KAS603, a Chlorella sp. [1]; T = 4 hours after 0.05 mM glyburide, oxamate pre-treated cultures, listed as GLB3): 0.0004 g; Weights of oil recovered from outside cells following glyburide treatment (KAS603, a Chlorella sp. [1]; T = 24 hours after 0.05 mM glyburide, oxamate pre-treated cultures, listed as GLB1): 0.0016 g; Weights of oil recovered from outside cells following glyburide treatment (KAS603, a Chlorella sp. [1]; T = 24 hours after 0.05 mM glyburide, oxamate pre-treated cultures, listed as GLB2): 0.0014 g; Weights of oil recovered from outside cells following glyburide treatment (KAS603, a Chlorella sp. [1]; T = 24 hours after 0.05 mM glyburide, oxamate pre-treated cultures, listed as GLB3): 0.0013 g; quantity of lipid species of intermediate polarity (between FFA and 1,3DG) in extracellular lipids, TLC (KAS603, a Chlorella sp. [1]; glyburide treated groups vs control): significantly increased; external hydrocarbon (HPLC) (KAS603, a Chlorella sp. [1]; glyburide treated vs untreated, 24 h): An increase in external hydrocarbon; oily sheen on the culture surface (P. Parvum [2]; 500 mL culture, glyburide 24 h, no oxamate, vs control culture): much more prevalent; lipid (TAG) in culture supernatant extract, TLC (P. Parvum [2]; glyburide/oxamate-treated subculture vs DMSO control on oxamate): increase the production and/or secretion of lipid, specifically triacylglyceride (TAG); swirls of secreted oil on the culture surface (P. Parvum [2]; oxamate treated culture, 400 mL subculture, glyburide in DMSO 24 h, control had very few swirls): a number of swirls on the surface; Nile Red fluorescence in the growth medium environment (algal cells): an increase in Nile Red fluorescence; effect of compound treatment on culture growth (KAS603, a Chlorella sp. [3]): no evidence that compound treatment slowed growth

**Q.** Which results are given for `NC(=O)C(=O)[O-].[Na+]` [sodium oxamate]?
**A.** Nile Red fluorescence within cells (Chlorella sp.): increases in Nile Red fluorescence; uncharacterized polar lipids (HPLC) (KAS603, a Chlorella sp. [4]; 0.3 mM sodium oxamate at 48 h vs untreated control at time 0): increases in uncharacterized polar lipids; chlorophyll and total lipids in total extracts (HPLC) (KAS603, a Chlorella sp. [4]; 0.3 mM sodium oxamate, treated versus untreated groups): increases in chlorophyll and total lipids were detected; TAG accumulation in oil extracts (KAS603, a Chlorella sp. [4]; 0.3 mM sodium oxamate, up to 48 h): Significant TAG accumulation was not found; quantity of "other" lipid species (KAS603, a Chlorella sp. [4]; oxamate treated cultures vs untreated): trended higher; undefined lipids (UN) in total extracts by TLC (KAS603, a Chlorella sp. [4]; oxamate treated vs untreated groups): did not differ between treated and untreated groups; Hydrocarbon (HC) and β-carotene (BC) concentrations, TLC of total extracts (KAS603, a Chlorella sp. [4]; throughout the oxamate treatment phase): remained consistent; Nile Red fluorescence within cells (Schizochytrium sp.): increases in Nile Red fluorescence; cell concentrations achieved (P. Parvum [5]): higher cell concentrations than did the controls; onset of culture decline (P. Parvum [5]): began to decline sooner than the controls; effect of compound treatment on culture growth (KAS603, a Chlorella sp. [3]): no evidence that compound treatment slowed growth; Nile Red fluorescence within cells (P. Parvum [6]): increases in Nile Red fluorescence
